Assays:
[1] = biological target: Receptor-type tyrosine-protein kinase FLT3 (Homo sapiens) (UniProt P36888); conditions: at 20 µM
[2] = biological target: T1, Receptor-type tyrosine-protein kinase FLT3 (Homo sapiens, UniProt P36888)
T1 sequence (P36888 whole entry): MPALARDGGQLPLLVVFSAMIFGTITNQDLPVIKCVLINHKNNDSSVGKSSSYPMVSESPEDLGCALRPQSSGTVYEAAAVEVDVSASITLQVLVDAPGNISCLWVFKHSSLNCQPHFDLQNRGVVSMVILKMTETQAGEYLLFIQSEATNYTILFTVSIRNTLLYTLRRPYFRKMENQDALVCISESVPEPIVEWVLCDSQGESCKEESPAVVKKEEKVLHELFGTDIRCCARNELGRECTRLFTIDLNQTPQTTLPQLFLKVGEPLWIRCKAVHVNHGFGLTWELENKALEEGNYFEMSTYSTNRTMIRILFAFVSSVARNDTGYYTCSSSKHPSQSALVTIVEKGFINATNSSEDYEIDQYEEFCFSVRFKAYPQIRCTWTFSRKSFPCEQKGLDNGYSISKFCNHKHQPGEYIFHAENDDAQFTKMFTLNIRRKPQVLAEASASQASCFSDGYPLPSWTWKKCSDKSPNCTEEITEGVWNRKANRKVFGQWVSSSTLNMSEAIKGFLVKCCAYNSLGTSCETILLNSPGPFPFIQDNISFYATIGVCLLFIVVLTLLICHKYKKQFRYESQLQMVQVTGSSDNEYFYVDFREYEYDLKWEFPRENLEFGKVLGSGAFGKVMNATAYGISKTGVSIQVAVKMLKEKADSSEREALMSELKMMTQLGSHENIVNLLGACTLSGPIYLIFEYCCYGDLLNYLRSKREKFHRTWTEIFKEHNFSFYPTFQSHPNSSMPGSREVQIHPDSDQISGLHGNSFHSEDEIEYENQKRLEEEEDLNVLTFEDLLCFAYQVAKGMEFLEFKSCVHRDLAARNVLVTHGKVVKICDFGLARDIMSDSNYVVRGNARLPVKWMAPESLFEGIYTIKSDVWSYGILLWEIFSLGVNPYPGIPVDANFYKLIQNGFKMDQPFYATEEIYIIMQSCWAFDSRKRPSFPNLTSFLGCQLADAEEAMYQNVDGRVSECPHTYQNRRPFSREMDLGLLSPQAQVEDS

[3] = system: Receptor-type tyrosine-protein kinase FLT3 (Homo sapiens), P36888 [UNDEFINED MUTATION]; assay: Inhibition of FLT3 ITD mutant in human MOLM14 cells assessed as cell growth inhibition after 48 hrs by CellTiter-Glo assay; assay type: cell-based; conditions: MOLM-14
[4] = system: Receptor-type tyrosine-protein kinase FLT3 (Homo sapiens), P36888 [UNDEFINED MUTATION]; assay: Inhibition of FLT3 ITD mutant in human MV4-11 cells assessed as cell growth inhibition after 48 hrs by CellTiter-Glo assay; assay type: cell-based
[5] = system: Receptor-type tyrosine-protein kinase FLT3 (Homo sapiens), P36888 [UNDEFINED MUTATION]; assay: Inhibition of FLT3 ITD mutant (unknown origin) expressed in mouse BAF3 cells assessed as cell growth inhibition after 48 hrs by CellTiter-Glo assay; assay type: cell-based
[6] = system: Receptor-type tyrosine-protein kinase FLT3 (Homo sapiens), P36888 [UNDEFINED MUTATION]; assay: Inhibition of FLT3 ITD F691L mutant (unknown origin) expressed in mouse BAF3 cells assessed as cell growth inhibition after 48 hrs by CellTiter-Glo assay; assay type: cell-based
[7] = system: Receptor-type tyrosine-protein kinase FLT3 (Homo sapiens), P36888 [UNDEFINED MUTATION]; assay: Inhibition of FLT3 ITD D835V mutant (unknown origin) expressed in mouse BAF3 cells assessed as cell growth inhibition after 48 hrs by CellTiter-Glo assay; assay type: cell-based

Row | SMILES | inhibition [1] [%] | IC50 [2] [nM] | other results
1 | c1ccc(-c2ccn3ccnc3c2)cc1 | 0 | – | –
2 | Cc1ccc(-c2cnc3cc(-c4ccco4)ccn23)cc1 | 95.5 | 160 | –
3 | N#Cc1cc(-c2cnc3cc(-c4ccco4)ccn23)ccc1F | 98.7 | 470 | –
4 | N#CCc1ccc(-c2cnc3cc(-c4ccco4)ccn23)cc1 | 97.8 | 190 | –
5 | c1ccn2ccnc2c1 | 14.6 | – | –
6 | COc1ccc(-c2ccn3ccnc3c2)cc1 | 33.9 | – | –
7 | N#CCc1ccc(-c2cnc3ccccn23)cc1 | 20 | – | –
8 | COc1ccc(-c2ccn3c(-c4ccc(CC#N)cc4)cnc3c2)cc1 | 91 | 430 | –
9 | N#Cc1cc(-c2cnc3cc(-c4cccs4)ccn23)ccc1F | 29.7 | – | –
10 | COc1ccc(-c2ccn3c(-c4ccc(F)c(C#N)c4)cnc3c2)cc1 | 81.4 | – | –
11 | Cc1ccc(-c2cnc3cc(-c4cccs4)ccn23)cc1 | 89.7 | – | –
12 | COc1ccc(-c2ccn3c(-c4ccc(C)cc4)cnc3c2)cc1 | 91.4 | 440 | –
13 | c1coc(-c2ccn3ccnc3c2)c1 | 67.1 | – | –
14 | N#CCc1ccc(-c2cnc3cc(-c4ccccc4)ccn23)cc1 | 96.4 | 550 | –
15 | Fc1ccc(-c2cnc3ccccn23)cc1 | 94.8 | 480 | –
16 | N#Cc1cc(-c2cnc3ccccn23)ccc1F | 61.3 | – | –
17 | Clc1ccn2ccnc2c1 | 23.8 | – | –
18 | N#Cc1cc(-c2cnc3cc(-c4ccccc4)ccn23)ccc1F | 94.1 | 230 | –
19 | N#CCc1ccc(-c2cnc3cc(-c4cccs4)ccn23)cc1 | 98 | 51 | –
20 | c1csc(-c2ccn3ccnc3c2)c1 | 79.8 | – | –
21 | COc1ccc(-c2ccn3c(-c4ccc(F)cc4)cnc3c2)cc1 | 98.6 | 78 | –
22 | Fc1ccc(-c2cnc3cc(-c4ccccc4)ccn23)cc1 | 98.8 | 16 | GI50 [3]: 513 nM; GI50 [4]: 706 nM; GI50 [5]: 333 nM
23 | Cc1ccc(-c2cnc3ccccn23)cc1 | 77 | – | –
24 | Fc1ccc(-c2cnc3cc(-c4ccco4)ccn23)cc1 | 99.3 | 41 | GI50 [6]: > 1000 nM; GI50 [7]: > 1000 nM; GI50 [3]: 712 nM; GI50 [4]: 830 nM; GI50 [5]: 484 nM
25 | Cc1ccc(-c2cnc3cc(-c4ccccc4)ccn23)cc1 | 94.1 | 300 | –
